Reference: patent publication US20250320501A1, “PALMITOYLATION OF THE ALTERNATIVE AMINO TERMINUS OF THE BTK-C ISOFORM CONTROLS SUBCELLULAR DISTRIBUTION AND SIGNALING” (The Research Foundation for the State University of New York, priority 2022, published 2025)
Each block holds one compound with its values, some of them ahead of it.

Assays:
[1] = target: T1, BTK-A (Homo sapiens, UniProt Q06187); test: Acyl incorporation assay (click chemistry after Flag immunoprecipitation), BTK-A; assay type: cell-based; settings: HEK293 cells co-expressing zDHHC5, 100 μM analogue for 4 h
T1 construct: cells expressing Flag-tagged, full-length versions of BTK-A and BTK-C; expressed in transfected cells; host or cells: HEK293
Experimental: (§1) FIG. 2A-D presents the BTK-C isoform palmitoylated: FIG. 2A presents a diagram of BTK isoform C-terminal Flag-tagged constructs: FIG. 2B presents an expression of Flag-tagged constructs in MDA-MB-231 cells; FIG. 2C presents detection scheme for acylated BTK isoforms. Cells were incubated with 17-ODYA. Flag immunoprecipitates were reacted with azide-activated biotinylation reagent and detected through reaction with streptavidin-linked horseradish peroxidase; and FIG. 2D presents HEK293 cells were transfected with 1 μg of BTK-A, BTK-C, or BTK-C C13A, C16A and 2 μg of a plasmid expressing zDHHC5. 24 h after transfection cells were incubated for 4 h with 100 μM palmitic acid alkyne (17-ODYA). Cell lysate supernatants were immunoprecipitated with Anti-Flag M2 affinity gel (Sigma) at 4° C. overnight, subjected to click chemistry with 20 μM biotin picolyl azide for 30 m at room temperature before electrophoresis and blotting.
Reporter construction and viral transgenesis: GFP fusion constructs were generated using a BTK pleckstrin homology domain fusion protein vector, PH-Btk-GFP (Addgene Plasmid #51463). BTK constructs (BTK-A R28C; BTK-C; BTK-C R28C; BTK-C C13A, C16A; BTK-C C13A,C16A,R28C) were generated in this plasmid using QuikChange site directed mutagenesis. The exon 1C sequence (FIG. 1B) was subcloned from the original cDNA isolate. […]

[2] = target: T2, BTK-C (Homo sapiens, UniProt Q06187, M35A); test: Acyl incorporation assay (click chemistry after Flag immunoprecipitation), BTK-C; assay type: cell-based; settings: HEK293 cells co-expressing zDHHC5, 100 μM analogue for 4 h
T2 construct: cells expressing Flag-tagged, full-length versions of BTK-A and BTK-C; expressed in transfected cells; host or cells: HEK293
Experimental: as §1
Reporter construction and viral transgenesis: GFP fusion constructs were generated using a BTK pleckstrin homology domain fusion protein vector, PH-Btk-GFP (Addgene Plasmid #51463). BTK constructs (BTK-A R28C; BTK-C; BTK-C R28C; BTK-C C13A, C16A; BTK-C C13A,C16A,R28C) were generated in this plasmid using QuikChange site directed mutagenesis. The exon 1C sequence (FIG. 1B) was subcloned from the original cDNA isolate. To prevent internal translational initiation at the BTK-A ATG, this codon was changed to Ala in all BTK-C constructs. Production of either the 77 kDa BTK-A isoform or the 65 kDa p65BTK was not observed for BTK-C constructs. GFP reporters were subcloned into MARXIVpuro REV plasmid (22). Full-length mutant proteins were produced by subcloning into a BTK gene with a C-terminal Flag tag expressed from a MARXIVpuro REV vector. DNA sequence was confirmed by DNA sequence analysis for all constructs. ϕNX-Ampho cells were transfected with Flag-tagged versions of BTK as described. Empty vector was used as a control. A lentivirus-born shRNA targeting the chromosomal BTK 3′UTR TRCN0000000358 (Sigma-Aldrich, Saint Louis, MO) was used to silence endogenous BTK isoform expression such that each line predominantly expresses the wild-type or mutant version of the intended isoform. BTK acylation: HEK293 cells plated on 6 wells plates were transfected using X-tremeGENE HP transfection reagent (Sigma-Aldrich, Saint Louis, MO) with 1 μg of BTK-C, BTK-A, or BTK-C C13A, C16A with 2 μg of zDHHC5 plasmid. 24 hours after transfection, cells were incubated with 100 μM of palmitic acid alkyne (in DMEM with 1 mg/ml defatted BSA) for 4 h at 37° C. Cells were washed twice in PBS, then lysed on ice in 50 mM Tris HCl, pH 7.4 with 150 mM NaCl, 1 mM EDTA, 1% TRITON X-100 and protein inhibitors. […]

[3] = tested on: breast cells; test: Toxicity of PI3K inhibition in breast cells; assay type: cell-based; settings: breast cells (not shown)
Source text: Regulation of BTK-C localization and activity by PIP3 levels: Activation of BTK-A in B cells has been extensively studied. Adsorption of BTK-A to the B cell plasma membrane is driven by binding to PIP3 which opens the BTK monomer conformation allowing dimerization, auto-activation (Y223 phosphorylation) and transactivation (Y551 phosphorylation). […] Mutation of the analogous arginine in BTK-C(R62 in BTK-C) causes it to fail to localize to the membrane (FIG. 3S). […] For example, MDA-MB-231 cells which are PTEN^+ display less plasma membrane staining when compared to SUM149 cells which are PTEN. […] This PIP3-dependent activation may occur through BTK-C dimer formation through juxtaposed membrane-bound PH domains as occurs with the BTK-A. Using an assay developed by Chung et al., co-transfecting BTK-C with the BTK-C-GFP construct which contains the PH domain but is missing the kinase domain reduces Y551 phosphorylation compared with vector or BTK-C only (FIG. 4D).

[4] = tested on: LNCaP C42b prostate cancer cell line; test: Toxicity of PI3K inhibition in LNCaP C42b cells; assay type: cell-based; settings: PTEN- LNCaP C42b prostate cancer cell line, compared with breast cells
[5] = tested on: BTK-A and BTK-C; test: Activating phosphorylation of BTK isoforms after stimulation with other ligands; assay type: cell-based, human; settings: ligand stimulation (not shown)
[6] = tested on: BTK-C; test: Activating tyrosine phosphorylation of BTK-C after insulin stimulation (immunoblot densitometry); assay type: cell-based, human; settings: transfected HEK293 cells
Experimental: (§2) FIG. 5A-D present activating tyrosine phosphorylation of the BTK isoforms. BTK-A, BTK-C and BTK-C C13, C16 mutant constructs were transfected into HEK293 cell and after 24 hours stimulated with insulin. Values represent fold tyrosine-phosphorylated signal normalized to total BTK-A or BTK-C(anti-Flag) determined by densitometry; FIG. 5B presents phosphorylation of the BTK target tyrosine 759 of PLCγ2 in transfected HEK293 cells; FIG. 5C presents BTK-C expression increases proliferation rate of MDA-MB-231 (PTEN+) but not SUM149 (PTEN−) cells. Cells were seeded in 96 well plates and fixed with 4% formaldehyde and counted at 72 hours. Data were normalized to control and are presented as mean+SD. *p<0.05 using Student's ttest, n=3; and FIG. 5D presents BTK-C increases glucose uptake in MDA-MB-231 (PTEN+) but not SUM149 (PTEN−) cells. Cells were seeded and treated with 100 μM 2-NBDG for 15 min. Fluorescence images were acquired with an InCell 2200 and overall fluorescence intensity quantified. […]
(§3) Embodiment disclosed herein included the following materials and methods: Cell lines MD-AMB-231, BT549, SUM149, SKBr3 and ϕNX-AMPHO were obtained from the American Type Culture Collection (ATCC). […] In growth and uptake experiments, differences between control and treatment conditions were evaluated using Student's t test for pairwise comparisons. […]

[7] = tested on: BTK-A; test: Activating tyrosine phosphorylation of BTK-A after insulin stimulation (immunoblot densitometry); assay type: cell-based, human; settings: transfected HEK293 cells
Experimental: as §2, §3

[8] = insulin stimulation under reduced serum conditions

T2 sequence (Q06187 1-693 isoform Q06187-2 M35A): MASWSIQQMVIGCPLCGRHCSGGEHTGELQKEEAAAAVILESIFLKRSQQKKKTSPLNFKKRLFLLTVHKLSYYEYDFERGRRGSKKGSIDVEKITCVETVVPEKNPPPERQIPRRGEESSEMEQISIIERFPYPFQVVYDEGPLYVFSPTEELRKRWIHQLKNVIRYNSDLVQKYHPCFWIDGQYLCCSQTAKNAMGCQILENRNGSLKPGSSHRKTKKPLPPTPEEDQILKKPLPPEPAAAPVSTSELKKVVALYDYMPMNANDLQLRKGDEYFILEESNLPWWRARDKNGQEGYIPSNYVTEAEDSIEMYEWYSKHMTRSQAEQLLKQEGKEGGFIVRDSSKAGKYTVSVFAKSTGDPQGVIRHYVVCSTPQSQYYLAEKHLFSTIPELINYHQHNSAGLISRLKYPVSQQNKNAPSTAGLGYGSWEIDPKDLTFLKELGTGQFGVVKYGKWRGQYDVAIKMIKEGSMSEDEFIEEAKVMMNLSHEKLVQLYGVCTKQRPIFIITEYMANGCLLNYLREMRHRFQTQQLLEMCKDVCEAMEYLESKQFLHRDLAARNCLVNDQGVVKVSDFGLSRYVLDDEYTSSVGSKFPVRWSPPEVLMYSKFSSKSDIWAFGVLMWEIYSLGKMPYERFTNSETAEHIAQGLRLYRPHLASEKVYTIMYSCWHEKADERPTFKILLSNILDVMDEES
T1 sequence (Q06187 whole entry): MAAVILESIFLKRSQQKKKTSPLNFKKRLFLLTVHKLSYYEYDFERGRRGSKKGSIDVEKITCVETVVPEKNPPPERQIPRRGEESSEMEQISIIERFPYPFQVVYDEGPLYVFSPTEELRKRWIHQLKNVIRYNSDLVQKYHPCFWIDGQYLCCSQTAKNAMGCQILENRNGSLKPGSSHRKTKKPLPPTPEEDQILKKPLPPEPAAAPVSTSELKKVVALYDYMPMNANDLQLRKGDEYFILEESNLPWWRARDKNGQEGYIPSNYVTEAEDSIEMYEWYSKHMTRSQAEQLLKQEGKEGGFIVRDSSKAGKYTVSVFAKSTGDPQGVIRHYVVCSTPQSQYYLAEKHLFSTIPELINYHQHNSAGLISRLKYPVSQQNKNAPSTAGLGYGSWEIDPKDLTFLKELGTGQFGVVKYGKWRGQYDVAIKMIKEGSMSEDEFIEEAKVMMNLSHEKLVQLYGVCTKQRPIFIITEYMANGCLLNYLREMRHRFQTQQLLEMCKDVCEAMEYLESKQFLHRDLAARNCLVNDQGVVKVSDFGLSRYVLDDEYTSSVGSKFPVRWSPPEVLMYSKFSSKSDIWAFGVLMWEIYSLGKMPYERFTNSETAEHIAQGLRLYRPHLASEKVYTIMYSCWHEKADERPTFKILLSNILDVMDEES

incorporation of acyl analogue label into BTK-A [1]: not
incorporation of acyl analogue label into BTK-C [2]: label is increased
Compound: C#CCCCCCCCCCCCCCCCC(=O)O [17-ODYA, 17-octadecynoic acid]

Compound: C[C@H](Nc1ncnc2[nH]cnc12)c1cc2cccc(Cl)c2c(=O)n1-c1ccccc1 [IPI-145, Duvelisib]
toxicity [3]: significant toxicity
toxicity [4]: less toxicity

incorporation of acyl analogue label into BTK-C [2]: failed to observe incorporation
Compound: CCCCC/C=C\C/C=C\C/C=C\C/C=C\CCCC(=O)O [arachidonic acid]

Compound: CCCCCCCC/C=C\CCCCCCCC(=O)O [oleic acid]
incorporation of acyl analogue label into BTK-C [2]: failed to observe incorporation

incorporation of acyl analogue label into BTK-C [2]: failed to observe incorporation
Compound: CCCCCC/C=C\CCCCCCCC(=O)O [palmitoleic acid]

Compound: EGF: ligand used for stimulation of BTK activation (NSDSECPLSHDGYCLHDGVCMYIEALDKYACNCVVGYIGERCQYRDLKWWELR; UniProt P01133 971-1023, looked up)
increase of activating phosphorylation levels above unstimulated levels [5]: only modestly

Compound: Insulin: common activator of PI3K in cancer cells
transactivation (phosphorylation of BTK by its dimerized partner) of BTK-C ([6]; insulin stimulation (FIG. 5A)): largely unchanged
increase of Y551 phosphorylation of BTK-C [6, 8]: ~24%
transactivation (phosphorylation of BTK by its dimerized partner) of BTK-A ([7]; insulin stimulation (FIG. 5A)): largely unchanged
increase of Y551 phosphorylation of BTK-A [7, 8]: two-fold
